Test results: BindingDB's records for doi:10.1021/jm00119a018 (Southern Research Institute, 1988)

Target: Bifunctional purine biosynthesis protein ATIC (Homo sapiens, UniProt P31939)
Assay: ChEBML_28408
Description: Compound was tested for inhibition of AICAR formyltransferase

Bifunctional purine biosynthesis protein ATIC, sequence (P31939 whole entry): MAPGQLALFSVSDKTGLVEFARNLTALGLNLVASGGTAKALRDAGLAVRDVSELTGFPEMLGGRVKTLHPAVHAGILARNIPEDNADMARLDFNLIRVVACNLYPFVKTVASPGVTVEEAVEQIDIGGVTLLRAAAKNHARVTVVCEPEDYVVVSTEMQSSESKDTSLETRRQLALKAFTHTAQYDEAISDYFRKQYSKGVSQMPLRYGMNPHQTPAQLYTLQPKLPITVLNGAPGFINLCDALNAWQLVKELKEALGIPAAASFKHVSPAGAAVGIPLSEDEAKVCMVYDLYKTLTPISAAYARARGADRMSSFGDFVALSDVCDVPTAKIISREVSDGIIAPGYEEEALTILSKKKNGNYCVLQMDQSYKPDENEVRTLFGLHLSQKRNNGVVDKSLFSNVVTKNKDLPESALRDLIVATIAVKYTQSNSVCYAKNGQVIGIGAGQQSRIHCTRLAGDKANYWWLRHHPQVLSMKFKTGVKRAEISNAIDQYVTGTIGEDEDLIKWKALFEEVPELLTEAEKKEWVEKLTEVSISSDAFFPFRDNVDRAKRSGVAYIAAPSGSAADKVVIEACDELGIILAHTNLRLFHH

CC1c2c(nc(N)[nH]c2=O)NCC1CCc1ccc(C(=O)NC(CCC(=O)O)C(=O)O)cc1 (stereo not drawn) [(5RS, 6RS) 2-{4-[2-(2-Amino-5-methyl-4-oxo-3,4,5,6,7,8-hexahydro-pyrido[2,3-d]pyrimidin-6-yl)-ethyl]-benzoylamino}-pentanedioic acid]
IC50: > 20 µM
